Laboratory results reported in US10457687B2, “Aminoacid derivatives, a process for their preparation and pharmaceutical compositions containing them” (LES LABORATOIRES SERVIER, priority 2015, dated 2019).

target: Mcl-1 protein (Homo sapiens, UniProt Q07820); experiment: Inhibition of Mcl-1 by the fluorescence polarisation technique (Method 1 or Method 2); type: binding; settings: fluorescence polarisation, Fluorescein labelled ligand; Method 1 (not underlined) or Method 2 (underlined); read-out: IC50 (μM) Mcl-1 FP
In short: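 Fluorescence polarisation competition of 11-point compound dilutions (5% DMSO final) against fluorescein-labelled ligand for Mcl-1. Method 1: 1 nM ligand, 5 nM protein in 10 mM HEPES, 150 mM NaCl, 0.05% Tween 20, pH 7.4; Method 2: 10 nM ligand, 10 nM protein in 20 mM Na2HPO4, 1 mM EDTA, 50 mM NaCl, pH 7.4.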

Mcl-1 protein, sequence (Q07820 whole entry): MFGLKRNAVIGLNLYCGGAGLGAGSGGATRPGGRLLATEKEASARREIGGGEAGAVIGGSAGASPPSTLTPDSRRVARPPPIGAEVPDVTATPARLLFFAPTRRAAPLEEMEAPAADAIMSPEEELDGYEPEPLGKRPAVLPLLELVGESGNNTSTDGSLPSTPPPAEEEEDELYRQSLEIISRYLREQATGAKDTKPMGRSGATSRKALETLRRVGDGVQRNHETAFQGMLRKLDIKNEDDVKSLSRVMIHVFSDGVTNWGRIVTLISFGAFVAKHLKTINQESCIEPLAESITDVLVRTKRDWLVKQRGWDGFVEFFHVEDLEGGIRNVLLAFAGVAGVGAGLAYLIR

Point of comparison: CCc1sc2ncnc(NC(Cc3ccccc3)C(=O)O)c2c1-c1cccc2c1c(Cl)cn2CCN1CCN(C)CC1 [Example 239, N-((5Ra)-5-{3-chloro-1-[2-(4-methylpiperazin-1-yl)ethyl]-1H-indol-4-yl}-6-ethyl-thieno[2,3-d]pyrimidin-4-yl)-D-phenylalanine], IC50 20.3 µM. Against it:
- C=Cc1sc2ncnc(NC(Cc3ccccc3)C(=O)O)c2c1-c1cccc2ccccc12 [Example 103, N-[6-ethenyl-(5Ra)-5-(naphthalen-1-yl)thieno[2,3-d]pyrimidin-4-yl]-D-phenylalanine] — 28-fold lower, 0.715 µM
- CCc1sc2ncnc(NC(Cc3ccccc3)C(=O)O)c2c1-c1ccc(OCCCN(C)C)c(Cl)c1C [Example 60, N-((5Sa)-5-{3-chloro-4-[3-(dimethylamino)propoxy]-2-methylphenyl}-6-ethylthieno[2,3-d]pyrimidin-4-yl)-D-phenylalanine] — 220-fold lower, 0.092 µM
- CCc1sc2ncnc(NC(Cc3c(F)cccc3F)C(=O)O)c2c1-c1cccc(Cl)c1C [Example 131, N-[(5Sa)-5-(3-chloro-2-methylphenyl)-6-ethylthieno[2,3-d]pyrimidin-4-yl]-2,6-difluoro-D-phenylalanine] — 41-fold lower, 0.495 µM
- CCc1sc2ncnc(NC(Cc3cccc(F)c3)C(=O)O)c2c1-c1cccc2ccccc12 [Example 179, N-[6-ethyl-(5Sa)-5-(naphthalen-1-yl)thieno[2,3-d]pyrimidin-4-yl]-3-fluoro-D-phenylalanine] — 23-fold lower, 0.881 µM
- CCc1sc2ncnc(N[C@H](Cc3ccccc3)C(=O)O)c2c1-c1cccc(F)c1C [Example 68, N-[6-ethyl-5-(3-fluoro-2-methylphenyl)thieno[2,3-d]pyrimidin-4-yl]-D-phenylalanine] — 140-fold lower, 0.142 µM
- CCc1sc2ncnc(NC(Cc3ccccc3)C(=O)O)c2c1-c1cccc(OC)c1C [Example 76, N-[6-ethyl-(5Ra)-5-(3-methoxy-2-methylphenyl)thieno[2,3-d]pyrimidin-4-yl]-D-phenylalanine] — 6.4-fold lower, 3.18 µM
- CCc1sc2ncnc(NC(Cc3ccc(O)cc3)C(=O)O)c2c1-c1cccc2ccccc12 [Example 172, N-[6-ethyl-(5Ra)-5-(naphthalen-1-yl)thieno[2,3-d]pyrimidin-4-yl]-D-tyrosine] — within 1.5-fold, 28.8 µM
- CCc1sc2ncnc(N[C@H](Cc3ccccc3)C(=O)O)c2c1-c1cccc(O)c1C [Example 67, N-[6-ethyl-5-(3-hydroxy-2-methylphenyl)thieno[2,3-d]pyrimidin-4-yl]-D-phenylalanine] — 9.8-fold lower, 2.08 µM
- CCOC(=O)C(Cc1ccccc1OCc1ccnc(-c2ccccc2OCCOC)n1)Nc1ncnc2sc(-c3ccc(F)cc3)c(-c3ccc(OCCN(C)C)c(Cl)c3C)c12 [Example 260, ethyl N-[(5Sa)-5-{3-chloro-4-[2-(dimethylamino)ethoxy]-2-methylphenyl}-6-(4-fluorophenyl)thieno[2,3-d]pyrimidin-4-yl]-2-({2-[2-(2-methoxyethoxy)phenyl]pyrimidin-4-yl}methoxy)-D-phenylalaninate] — 10-fold lower, 1.98 µM
- CCc1sc2ncnc(N[C@H](CCc3ccccc3)C(=O)O)c2c1-c1cccc2ccccc12 [Example 169, (2R)-2-{[6-ethyl-5-(naphthalen-1-yl)thieno[2,3-d]pyrimidin-4-yl]amino}-4-phenylbutanoic acid] — 9.7-fold lower, 2.1 µM
- Cc1c(Cl)cccc1-c1c(C2CC2)sc2ncnc(NC(Cc3ccccc3)C(=O)O)c12 [Example 217, N-[(5Sa)-5-(3-chloro-2-methylphenyl)-6-cyclopropyl-thieno[2,3-d]pyrimidin-4-yl]-D-phenylalanine] — 310-fold lower, 0.065 µM
- CCc1sc2ncnc(NC(Cc3ccccc3C(N)=O)C(=O)O)c2c1-c1cccc(Cl)c1C [Example 134, 2-carbamoyl-N-[(5Sa)-5-(3-chloro-2-methylphenyl)-6-ethylthieno[2,3-d]pyrimidin-4-yl]-D-phenylalanine] — 120-fold lower, 0.176 µM
- COc1ccccc1-c1nccc(COc2ccccc2CC(Nc2ncnc3sc(-c4ccc(F)cc4)c(-c4ccc(OCCN5CCN(C)CC5)c(Cl)c4C)c23)C(=O)O)n1 [Example 7, N-[(5Sa)-5-{3-chloro-2-methyl-4-[2-(4-methylpiperazin-1-yl)ethoxy]phenyl}-6-(4-fluorophenyl)thieno[2,3-d]pyrimidin-4-yl]-2-{[2-(2-methoxyphenyl)pyrimidin-4-yl]methoxy}-D-phenylalanine] — 2500-fold lower, 0.008 µM
- CCc1sc2ncnc(NC(Cc3ccccc3)C(=O)O)c2c1-c1cc(Cl)c(O)c(Cl)c1C [Example 53, N-[(5Sa)-5-(3,5-dichloro-4-hydroxy-2-methylphenyl)-6-ethylthieno[2,3-d]pyrimidin-4-yl]-D-phenylalanine] — 1000-fold lower, 0.02 µM
- O=C(O)[C@@H](Cc1ccccc1)Nc1ncnc2sc(C(F)F)c(-c3cccc4ccccc34)c12 (single isomer, unassigned) [Example 208, N-[6-(difluoromethyl)-5-(naphthalen-1-yl)thieno[2,3-d]pyrimidin-4-yl]-D-phenylalanine] — 32-fold lower, 0.632 µM
- CCc1sc2ncnc(NC(Cc3ccc(O)cc3)C(=O)O)c2c1-c1cccc2ccccc12 [Example 173, N-[6-ethyl-(5Sa)-5-(naphthalen-1-yl)thieno[2,3-d]pyrimidin-4-yl]-D-tyrosine] — 3-fold lower, 6.79 µM
- CCc1sc2ncnc(NC(Cc3ccccn3)C(=O)O)c2c1-c1cccc(Cl)c1C [Example 152, N-[(5Sa)-5-(3-chloro-2-methylphenyl)-6-ethylthieno[2,3-d]pyrimidin-4-yl]-3-pyridin-2-yl-D-alanine] — 430-fold lower, 0.047 µM
- CC(=O)c1sc2ncnc(NC(Cc3ccccc3)C(=O)O)c2c1-c1cccc2ccccc12 [Example 200, N-[6-acetyl-(5Ra)-5-(naphthalen-1-yl)thieno[2,3-d]pyrimidin-4-yl]-D-phenylalanine] — 3.7-fold lower, 5.44 µM
- CCc1sc2ncnc(NC(Cc3ccccc3F)C(=O)O)c2c1-c1cccc2ccccc12 [Example 181, N-[6-ethyl-(5Sa)-5-(naphthalen-1-yl)thieno[2,3-d]pyrimidin-4-yl]-2-fluoro-D-phenylalanine] — 68-fold lower, 0.299 µM
- CCc1sc2ncnc(N[C@H](Cc3ccccc3)C(=O)O)c2c1-c1cccc2ncccc12 [Example 80, N-[6-ethyl-5-(quinolin-5-yl)thieno[2,3-d]pyrimidin-4-yl]-D-phenylalanine] — 42-fold lower, 0.487 µM
- CCc1sc2ncnc(N[C@H](Cc3ccncc3)C(=O)O)c2c1-c1cccc2ccccc12 [Example 193, N-[6-ethyl-5-(naphthalen-1-yl)thieno[2,3-d]pyrimidin-4-yl]-3-pyridin-4-yl-D-alanine] — 1.8-fold higher, 36.5 µM
- CCc1sc2ncnc(NC(Cc3ccccc3OCCCN(C)C)C(=O)O)c2c1-c1cccc(Cl)c1C [Example 158, N-[(5Sa)-5-(3-chloro-2-methylphenyl)-6-ethylthieno[2,3-d]pyrimidin-4-yl]-2-[3-(dimethylamino)propoxy]-D-phenylalanine] — 200-fold lower, 0.104 µM
- CCc1sc2ncnc(NC(Cc3ccccc3)C(=O)O)c2c1-c1cccc2c1c(Cl)cn2CCN(C)C [Example 230, N-((5Sa)-5-{3-chloro-1l-[2-(dimethylamino)ethyl]-1H-indol-4-yl}-6-ethyl-thieno[2,3-d]pyrimidin-4-yl)-D-phenylalanine] — 6.3-fold lower, 3.24 µM
- CCc1sc2ncnc(NC(Cc3ccccc3)C(=O)O)c2c1-c1ccc(OCCCN2CCN(C)CC2)c(Cl)c1C [Example 64, N-((5Sa)-5-{3-chloro-2-methyl-4-[3-(4-methylpiperazin-1-yl)propoxy]phenyl}-6-ethylthieno[2,3-d]pyrimidin-4-yl)-D-phenylalanine] — 810-fold lower, 0.025 µM

same assay, conditions: partial inhibitors; @ 7.4 μM test compound; read-out: percentage fluorescence polarisation inhibition, Mcl-1 FP

For CCc1sc2ncnc(N[C@H](Cc3ccccc3)C(=O)O)c2c1-c1cccc2c1cnn2C [Example 87, N-[6-ethyl-5-(1-methyl-1H-indazol-4-yl)thieno[2,3-d]pyrimidin-4-yl]-D-phenylalanine], the inhibition at 7.4 µM was 62.6%.

same assay, conditions: partial inhibitors; @ 10 μM test compound

Point of comparison: Cc1c(Cl)cccc1-c1c(C2CC2)sc2ncnc(NC(Cc3ccccc3)C(=O)O)c12 [Example 216, N-[(5Ra)-5-(3-chloro-2-methylphenyl)-6-cyclopropyl-thieno[2,3-d]pyrimidin-4-yl]-D-phenylalanine], “percentage fluorescence polarisation inhibition, Mcl-1 FP” value 58.95% @ 10 μM. Against it:
- CCc1sc2ncnc(N[C@H](Cc3ccccc3)C(=O)O)c2c1-c1ccc(OCCN2CCN(C)CC2)c(Cl)c1C [Example 63, N-((5Ra)-5-{3-chloro-2-methyl-4-[2-(4-methylpiperazin-1-yl)ethoxy]phenyl}-6-ethylthieno[2,3-d]pyrimidin-4-yl)-D-phenylalanine] — lower, 12.18% @ 10 μM

same assay, conditions: partial inhibitors; @ 50 μM test compound

Point of comparison: CCc1sc2ncnc(N[C@H](Cc3ccccc3OCCN(C)C)C(=O)O)c2c1-c1cccc(Cl)c1C [Example 155, N-[(5Ra)-5-(3-chloro-2-methylphenyl)-6-ethylthieno[2,3-d]pyrimidin-4-yl]-2-[2-(dimethylamino)ethoxy]-D-phenylalanine], “percentage fluorescence polarisation inhibition, Mcl-1 FP” value 63.15% @ 50 μM. Against it:
- COc1ccccc1C[C@@H](Nc1ncnc2sc(C(C)C)c(-c3cccc(Cl)c3C)c12)C(=O)O [Example 222, N-[(5Ra)-5-(3-chloro-2-methylphenyl)-6-(propan-2-yl)thieno[2,3-d]pyrimidin-4-yl]-2-methoxy-D-phenylalanine] — higher, 70% @ 50 μM

same assay, conditions: partial inhibitors; @ 200 μM test compound

Point of comparison: CCc1sc2ncnc(N[C@H](Cc3ccccc3)C(=O)O)c2c1-c1ccnc(Cl)c1C [Example 77, N-[(5Ra)-5-(2-chloro-3-methylpyridin-4-yl)-6-ethylthieno[2,3-d]pyrimidin-4-yl]-D-phenylalanine], “percentage fluorescence polarisation inhibition, Mcl-1 FP” value 75.45% @ 200 μM. Against it:
- CCc1sc2ncnc(N[C@H](Cc3ccccc3)C(=O)OC)c2c1-c1cccc2ccccc12 [Example 254, methyl N-[6-ethyl-(5Sa)-5-(naphthalen-1-yl)thieno[2,3-d]pyrimidin-4-yl]-D-phenylalaninate] — lower, 22.08% @ 200 μM
